Patent US20250361230A1, “LATS Inhibitors and Uses Thereof” (The USA, as Represented by the Secretary, Dept. of Heath …, priority 2022, published 2025)
Like-named read-outs stand apart in the source and are kept apart here.

Key:
[1] = target: AKT (Homo sapiens, UniProt P31749); assay: RBC HotSpot kinase assay (33P-ATP, P81 filter-binding), AKT; type: biochemical; details: read-out: AKT IC50
Summary of the method: (§1)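 Compounds were run as single 10-point titrations to give IC50 values in nM. Each kinase was mixed with substrate and cofactors in 20 mM Hepes pH 7.5 reaction buffer with 1% DMSO, then exposed to compound for 20 min. 33P-ATP was added for a 2 h room-temperature reaction, with activity measured by P81 filter binding.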

[2] = target: T1, LATS2 (Homo sapiens, UniProt Q9NRM7); assay: RBC HotSpot kinase assay (33P-ATP, P81 filter-binding), LATS2; type: biochemical; details: read-out: LATS2 IC50
T1 sequence (Q9NRM7 1-1088): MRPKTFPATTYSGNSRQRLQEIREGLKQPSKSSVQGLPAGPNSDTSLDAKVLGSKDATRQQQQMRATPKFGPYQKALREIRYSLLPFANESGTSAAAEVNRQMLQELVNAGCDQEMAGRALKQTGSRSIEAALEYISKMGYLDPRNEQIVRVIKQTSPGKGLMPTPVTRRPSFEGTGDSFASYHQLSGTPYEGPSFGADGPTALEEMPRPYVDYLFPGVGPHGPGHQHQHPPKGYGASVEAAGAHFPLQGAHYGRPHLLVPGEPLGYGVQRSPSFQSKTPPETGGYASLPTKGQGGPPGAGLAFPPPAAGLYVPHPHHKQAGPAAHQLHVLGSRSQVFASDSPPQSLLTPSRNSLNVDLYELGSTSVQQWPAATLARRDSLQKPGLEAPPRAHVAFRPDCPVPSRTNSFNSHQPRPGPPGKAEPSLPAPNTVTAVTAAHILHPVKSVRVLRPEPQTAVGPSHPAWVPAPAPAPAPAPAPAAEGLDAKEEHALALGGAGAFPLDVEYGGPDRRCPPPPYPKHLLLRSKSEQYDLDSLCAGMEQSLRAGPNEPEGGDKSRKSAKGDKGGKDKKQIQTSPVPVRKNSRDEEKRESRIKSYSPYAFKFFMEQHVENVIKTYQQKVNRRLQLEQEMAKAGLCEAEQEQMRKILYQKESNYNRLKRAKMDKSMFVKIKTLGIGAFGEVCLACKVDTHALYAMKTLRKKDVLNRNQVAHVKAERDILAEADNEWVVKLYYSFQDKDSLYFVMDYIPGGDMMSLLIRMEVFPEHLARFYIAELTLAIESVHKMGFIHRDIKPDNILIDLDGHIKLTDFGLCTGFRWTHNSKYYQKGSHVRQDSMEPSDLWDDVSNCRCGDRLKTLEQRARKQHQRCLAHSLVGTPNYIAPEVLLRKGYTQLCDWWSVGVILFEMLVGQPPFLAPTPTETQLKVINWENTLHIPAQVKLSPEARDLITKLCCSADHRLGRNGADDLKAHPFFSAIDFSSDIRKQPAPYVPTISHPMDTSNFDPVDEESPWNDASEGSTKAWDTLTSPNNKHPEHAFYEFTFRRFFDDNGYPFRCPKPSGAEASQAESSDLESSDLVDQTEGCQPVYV
Summary of the method: as §1

[3] = Table 28, biochemical kinase assay
[4] = Table 32, biochemical kinase assay

Chain of AKT (P31749 whole entry): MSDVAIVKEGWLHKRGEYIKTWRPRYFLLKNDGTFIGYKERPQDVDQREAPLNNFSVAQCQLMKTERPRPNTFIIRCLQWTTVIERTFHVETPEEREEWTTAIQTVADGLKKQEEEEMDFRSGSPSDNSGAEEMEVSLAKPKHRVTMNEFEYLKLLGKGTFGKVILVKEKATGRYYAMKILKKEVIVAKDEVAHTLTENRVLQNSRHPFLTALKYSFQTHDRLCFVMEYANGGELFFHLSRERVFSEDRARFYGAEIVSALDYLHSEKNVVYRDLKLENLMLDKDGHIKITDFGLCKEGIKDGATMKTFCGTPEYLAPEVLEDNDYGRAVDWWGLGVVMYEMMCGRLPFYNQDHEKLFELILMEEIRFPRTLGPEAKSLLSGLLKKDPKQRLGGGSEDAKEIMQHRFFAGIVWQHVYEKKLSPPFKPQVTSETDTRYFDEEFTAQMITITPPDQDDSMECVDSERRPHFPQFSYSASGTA

Row | IC50 [1, 4] [nM] | IC50 [2, 4] [nM] | IC50 ([1]; biochemical kinase inhibition) [nM] | IC50 ([2]; biochemical kinase inhibition) [nM] | SMILES | other results
1 | – | – | – | – | COC(=O)c1c[nH]c2nccc(-c3cc(C)c([C@@]4(O)[C@H](C)CN(C(=O)CN)C[C@@H]4C)c(F)c3)c12 [Compound 310, methyl 4-(3-fluoro-4-((3S,4s,5R)-1-glycyl-4-hydroxy-3,5-dimethylpiperidin-4-yl)-5-methylphenyl)-1H-pyrrolo[2,3-b]pyridine-3-carboxylate] | IC50 [1, 3]: 4420 nM; IC50 [2, 3]: 2.3 nM
2 | – | – | – | – | Cc1cc(-c2ccnc3[nH]cc(F)c23)cc(F)c1[C@@]1(O)[C@H](C)CN(C(=O)[C@H](N)CO)C[C@@H]1C [Compound 312, (R)-2-amino-1-((3S,4R,5R)-4-(2-fluoro-4-(3-fluoro-1H-pyrrolo[2,3-b]pyridin-4-yl)-6-methylphenyl)-4-hydroxy-3,5-dimethylpiperidin-1-yl)-3-hydroxypropan-1-one] | IC50 [1, 3]: 153 nM; IC50 [2, 3]: 3.5 nM
3 | – | – | – | – | Cc1cc(-c2ccnc3[nH]cc(F)c23)cc(F)c1[C@@]1(O)[C@H](C)CN(C(=O)[C@@H](CO)N(C)C)C[C@@H]1C [Compound 313, (R)-2-(dimethylamino)-1-((3S,4S,5R)-4-(2-fluoro-4-(3-fluoro-1H-pyrrolo[2,3-b]pyridin-4-yl)-6-methylphenyl)-4-hydroxy-3,5-dimethylpiperidin-1-yl)-3-hydroxypropan-1-one] | IC50 [1, 3]: 312 nM; IC50 [2, 3]: 1.6 nM
4 | – | – | – | – | OC1(c2ccc(-c3ccnc4[nH]cc(F)c34)cc2)CC2(CNC2)C1 [Compound 319, 6-(4-(3-fluoro-1H-pyrrolo[2,3-b]pyridin-4-yl)phenyl)-2-azaspiro[3.3]heptan-6-ol] | IC50 [1, 3]: 378 nM; IC50 [2, 3]: 29.3 nM
5 | 0.6 | 2.1 | – | – | NCC(O)(c1ccc(Cl)cc1)c1ccc(-c2ccnc3[nH]ccc23)cc1 (centres unmarked) [Compound 1001, 1-(4-(1H-pyrrolo[2,3-b]pyridin-4-yl)phenyl)-2-amino-1-(4-chlorophenyl)ethan-1-ol] | –
6 | 4.6 | 11.1 | – | – | NCC(O)(c1ccc(Cl)cc1)c1ccc(-c2ccnc3[nH]cc(F)c23)cc1 (centres unmarked) [Compound 1002, 2-amino-1-(4-chlorophenyl)-1-(4-(3-fluoro-1H-pyrrolo[2,3-b]pyridin-4-yl)phenyl)ethan-1-ol] | –
7 | 18.1 | 5.3 | – | – | COC(=O)c1c[nH]c2nccc(-c3ccc(C(O)(CN)c4ccc(Cl)cc4)cc3)c12 (centres unmarked) [Compound 1004, Methyl 4-(4-(2-amino-1-(4-chlorophenyl)-1-hydroxyethyl)phenyl)-1H-pyrrolo[2,3-b]pyridine-3-carboxylate] | –
8 | 1.7 | 8.9 | – | – | NCC(O)(c1ccc(Cl)cc1)c1ccc(-c2ccnc3[nH]cc(Br)c23)cc1 (centres unmarked) [Compound 1005, 2-amino-1-(4-(3-bromo-1H-pyrrolo[2,3-b]pyridin-4-yl)phenyl)-1-(4-chlorophenyl)ethan-1-ol] | –
9 | 230 | 20 | – | – | NCC(O)(c1ccc(Cl)cc1)c1ccc(-c2ccnc3[nH]cc(-c4ccccc4)c23)cc1 (centres unmarked) [Compound 1006, 2-amino-1-(4-chlorophenyl)-1-(4-(3-phenyl-1H-pyrrolo[2,3-b]pyridin-4-yl)phenyl)ethan-1-ol] | –
10 | 35.2 | 6.1 | – | – | NCC(O)(c1ccc(Cl)cc1)c1ccc(-c2ccnc3[nH]cc(-c4cccnc4)c23)cc1 (centres unmarked) [Compound 1007, 2-amino-1-(4-chlorophenyl)-1-(4-(3-(pyridin-3-yl)-1H-pyrrolo[2,3-b]pyridin-4-yl)phenyl)ethan-1-ol] | –
11 | 1 | < 0.5 | – | – | NCC(O)(c1ccc(Cl)cc1)c1ccc(-c2ccnc3[nH]cc(Br)c23)nc1 (centres unmarked) [Compound 1011, 2-amino-1-(6-(3-bromo-1H-pyrrolo[2,3-b]pyridin-4-yl)pyridin-3-yl)-1-(4-chlorophenyl)ethan-1-ol] | –
12 | < 0.5 | 1.6 | – | – | NCC(=O)NCC(O)(c1ccc(Cl)cc1)c1ccc(-c2ccnc3[nH]cc(Cl)c23)cc1 (centres unmarked) [Compound 1021, 2-amino-N-(2-(4-(3-chloro-1H-pyrrolo[2,3-b]pyridin-4-yl)phenyl)-2-(4-chlorophenyl)-2-hydroxyethyl) acetamide] | –
13 | – | – | 188 | 4.6 | Cc1cc(-c2ccnc3[nH]cc(C#N)c23)cc(F)c1[C@@]1(O)[C@H](C)CN(C2CCS(=O)(=O)CC2)C[C@@H]1C [Compound 2002, 4-(4-((3S,4s,5R)-1-(1,1-dioxidotetrahydro-2H-thiopyran-4-yl)-4-hydroxy-3,5-dimethylpiperidin-4-yl)-3-fluoro-5-methylphenyl)-1H-pyrrolo[2,3-b]pyridine-3-carbonitrile] | –
14 | – | – | 118 | 2 | Cc1cc(-c2ccnc3[nH]cc(C#N)c23)cc(F)c1[C@@]1(O)[C@H](C)CN(C(=O)CN)C[C@@H]1C [Compound 2004, 4-(3-fluoro-4-((3S,4s,5R)-1-glycyl-4-hydroxy-3,5-dimethylpiperidin-4-yl)-5-methylphenyl)-1H-pyrrolo[2,3-b]pyridine-3-carbonitrile] | –
15 | – | – | 22 | 1.2 | Cc1cc(-c2ccnc3[nH]cc(C#N)c23)ccc1[C@@]1(O)[C@H](C)CN(C(=O)CN)C[C@@H]1C [Compound 2005, 4-(4-((3S,4s,5R)-1-glycyl-4-hydroxy-3,5-dimethylpiperidin-4-yl)-3-methylphenyl)-1H-pyrrolo[2,3-b]pyridine-3-carbonitrile] | –
16 | – | – | 159 | 5.3 | Cc1cc(-c2ccnc3[nH]cc(C#N)c23)cc(F)c1[C@@]1(O)[C@H](C)CN(C(=O)[C@H](N)CO)C[C@@H]1C [Compound 2007, 4-(4-((3S,4S,5R)-1-(D-seryl)-4-hydroxy-3,5-dimethylpiperidin-4-yl)-3-fluoro-5-methylphenyl)-1H-pyrrolo[2,3-b]pyridine-3-carbonitrile] | –
17 | – | – | 262 | 5.5 | Cc1cc(-c2ccnc3[nH]cc(C#N)c23)cc(F)c1[C@@]1(O)[C@H](C)CN(C(=O)[C@](C)(N)CO)C[C@@H]1C [Compound 2008, 4-(4-((3S,4s,5R)-1-(2-amino-3-hydroxy-2-methylpropanoyl)-4-hydroxy-3,5-dimethylpiperidin-4-yl)-3-fluoro-5-methylphenyl)-1H-pyrrolo[2,3-b]pyridine-3-carbonitrile] | –
18 | – | – | 1030 | 16 | Cc1cc(-c2ccnc3[nH]cc(C#N)c23)cc(F)c1[C@@]1(O)[C@H](C)CN(C(=O)[C@H](C)N)C[C@@H]1C [Compound 2011, 4-(4-((3S,4R,5R)-1-(L-alanyl)-4-hydroxy-3,5-dimethylpiperidin-4-yl)-3-fluoro-5-methylphenyl)-1H-pyrrolo[2,3-b]pyridine-3-carbonitrile] | –
19 | – | – | 349 | 2.9 | CNCC(=O)N1C[C@@H](C)[C@](O)(c2c(C)cc(-c3ccnc4[nH]cc(C#N)c34)cc2F)[C@@H](C)C1 [Compound 2012, 4-(3-fluoro-4-((3S,4s,5R)-4-hydroxy-3,5-dimethyl-1-(methylglycyl)piperidin-4-yl)-5-methylphenyl)-1H-pyrrolo[2,3-b]pyridine-3-carbonitrile] | –
20 | – | – | 3010 | 6 | Cc1cc(-c2ccnc3[nH]cc(C#N)c23)cc(F)c1[C@@]1(O)[C@H](C)CN(C(=O)CNCC(F)(F)F)C[C@@H]1C [Compound 2014, 4-(3-fluoro-4-((3S,4s,5R)-4-hydroxy-3,5-dimethyl-1-((2,2,2-trifluoroethyl)glycyl)piperidin-4-yl)-5-methylphenyl)-1H-pyrrolo[2,3-b]pyridine-3-carbonitrile] | –
21 | – | – | 236 | 2 | Cc1cc(-c2ccnc3[nH]cc(C#N)c23)cc(F)c1[C@@]1(O)[C@H](C)CN(C(=O)[C@@H](C)N)C[C@@H]1C [Compound 2015, 4-(4-((3S,4S,5R)-1-(D-alanyl)-4-hydroxy-3,5-dimethylpiperidin-4-yl)-3-fluoro-5-methylphenyl)-1H-pyrrolo[2,3-b]pyridine-3-carbonitrile] | –
22 | – | – | 2050 | 6.9 | Cc1cc(-c2ccnc3[nH]cc(C#N)c23)cc(F)c1[C@@]1(O)[C@H](C)CN(C(=O)C(N)C(F)(F)F)C[C@@H]1C (stereo partly drawn) [Compound 2017, 4-(4-((3S,4s,5R)-1-(2-amino-3,3,3-trifluoropropanoyl)-4-hydroxy-3,5-dimethylpiperidin-4-yl)-3-fluoro-5-methylphenyl)-1H-pyrrolo[2,3-b]pyridine-3-carbonitrile] | –
